The conditions of data set [1]: cited from earlier work.
The conditions of data set [2]: under normal conditions; cited from earlier work.
For data set [3] the following is noted: nitrite 30 mM, 10 mM hydrochloric acid, hydroquinone 30 mM (FIG. 1); followed by a further slow increase.
Experimental: The pH was measured prior to addition of hydroquinone and then at time-points indicated following addition of hydroquinone.
The concentration of nitrosothiol concentration can be estimated from the absorbance reading using the molar absorption coefficient for nitrosothiols=approximately 10,000 M^−1 cm^−1.

As a reminder, the pKa is the pH at which an ionisable group is half protonated.

Like-named read-outs stand apart in the source and are kept apart here.

Regarding `O=NO` [Nitrite, nitrite], the figures for the pKa result in data set [1] (at 25° C.) and in data set [1] were “about 3.4” and 3.4, respectively.
On to `[N]=O` [NO, nitric oxide], for which the “Maximum solubility in water” value in data set [2] was “approximately 1.7 mM”.
Regarding `Oc1ccc(O)cc1` [hydroquinone, Hydroquinone], in data set [3], the “pH after rapid increase in the presence of hydroquinone” value is on record as “about 5.0”.
`O=C(O)O` [bicarbonic acid]: in data set [1], the pKa is listed as 6.3.

These data come from patent US20150030702A1, “NITRIC OXIDE-[…] DRESSINGS” (priority 2007, published 2015).
